# Data taken from paper PMC6858373 (Scientific Reports, 2019).
# Counter-ions that a name gives are not always drawn. Like-named read-outs stand apart in the source and are kept apart here.
# Assays:
# [1] = biological target: T1, FGF14:Nav1.6 C-tail complex (Homo sapiens, UniProt Q92915+Q9UQD0); test: Split-luciferase complementation assay (LCA) in Clone V double stable HEK293 cells; assay type: cell-based; details: for Split Luciferase Assay Z-score Set 1 / Split Luciferase Assay % Lum Set 1: biological replicate Set 1; for Split Luciferase Assay Z-score Set 1 / Split Luciferase Assay Z-score Set 2: normalized to on-plate 0.3% DMSO controls; for Split Luciferase Assay % Lum Set 1 / Split Luciferase Assay %Lum Set 2: normalized to on-plate 0.3% DMSO controls (n=16 per plate); for Split Luciferase Assay Z-score Set 2 / Split Luciferase Assay %Lum Set 2: biological replicate Set 2; for Split Luciferase Assay %Lum Avg: average of Set 1 and Set 2, normalized to 0.3% DMSO controls
# T1 construct: polymerase chain reaction (PCR) amplification of the FGF14 open reading frame (nt 1–855); C-terminal fragment of Nav1.6 (amino acids 1763–1976) fused with CD4ΔC-tail (amino acids 1–395); expressed in transfected cells
# Clone V cells [2] = system: Clone V cells
# Clone V cells [3] = test: CellTiter Blue (CTB) cell viability counter-screen; details: CC_NCI screening, normalized to on-plate 0.3% DMSO controls; for Toxicity Assay % Fluor: CTB cell viability fluorescence
# [4] = biological target: full-length P. pyralis luciferase (Photinus pyralis, UniProt P08659, K549A/L550V/N119G/N50D/S548I); assay type: cell-based; details: CC_NCI screening, normalized to on-plate 0.3% DMSO controls; for Luciferase Assay % Lum: full-length luciferase counter-screen luminescence; for Luciferase Assay Z-score: full-length luciferase counter-screen
# in vitro = details: human
# [5] = CC_NCI screening, LCA luminescence
# T1 sequence (Q92915 1-252 isoform Q92915-2): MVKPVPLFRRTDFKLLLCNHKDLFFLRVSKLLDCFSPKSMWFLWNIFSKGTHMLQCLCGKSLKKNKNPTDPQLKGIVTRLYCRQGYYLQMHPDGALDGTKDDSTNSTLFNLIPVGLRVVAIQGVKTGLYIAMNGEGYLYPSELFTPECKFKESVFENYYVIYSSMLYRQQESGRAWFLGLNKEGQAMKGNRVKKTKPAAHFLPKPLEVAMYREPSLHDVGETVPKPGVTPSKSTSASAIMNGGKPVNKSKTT
# T1 sequence (Q9UQD0 1763-1976 limits assumed): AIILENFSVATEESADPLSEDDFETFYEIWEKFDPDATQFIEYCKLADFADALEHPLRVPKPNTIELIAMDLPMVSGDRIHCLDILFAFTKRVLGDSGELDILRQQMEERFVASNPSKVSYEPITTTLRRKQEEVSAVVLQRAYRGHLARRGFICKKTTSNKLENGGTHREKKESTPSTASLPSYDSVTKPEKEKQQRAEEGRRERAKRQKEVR
# Sequence of full-length P. pyralis luciferase (P08659 whole entry N50D/N119G/S548I/K549A/L550V, looked up): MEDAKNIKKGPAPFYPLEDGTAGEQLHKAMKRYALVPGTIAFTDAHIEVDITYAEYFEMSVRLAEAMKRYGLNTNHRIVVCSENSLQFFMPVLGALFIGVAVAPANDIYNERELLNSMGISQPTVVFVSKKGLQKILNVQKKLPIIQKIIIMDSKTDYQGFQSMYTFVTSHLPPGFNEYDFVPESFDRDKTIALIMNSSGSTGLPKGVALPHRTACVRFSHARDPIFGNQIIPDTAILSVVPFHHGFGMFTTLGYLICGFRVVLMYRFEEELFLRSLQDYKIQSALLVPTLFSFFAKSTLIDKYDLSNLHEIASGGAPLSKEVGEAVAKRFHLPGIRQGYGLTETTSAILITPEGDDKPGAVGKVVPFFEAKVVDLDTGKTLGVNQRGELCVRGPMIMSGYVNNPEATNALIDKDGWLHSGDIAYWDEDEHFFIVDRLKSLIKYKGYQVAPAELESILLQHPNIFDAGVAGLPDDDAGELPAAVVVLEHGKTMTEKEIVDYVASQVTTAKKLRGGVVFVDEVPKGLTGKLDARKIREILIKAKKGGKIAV
Compound,"Split Luciferase Assay %Lum Set 2 [1, 5]","Split Luciferase Assay Z-score Set 2 ([1]; CC_NCI screening, LCA)",Split Luciferase Assay %Lum Avg ([1]; CC_NCI screening),"Toxicity Assay Z-score (Clone V cells [2]; human, 16 h, 30 µM)",Toxicity Assay % Fluor (Clone V cells [3]),Luciferase Assay % Lum [4],Luciferase Assay Z-score [4],"Split Luciferase Assay % Lum Set 1 [1, 5]","Split Luciferase Assay Z-score Set 1 ([1]; CC_NCI screening, LCA)",also measured
CC(=O)OCCN1C(=O)c2c(C)nc3ccc(S(=O)(=O)N4CCOCC4)cc3c2C1=O [IVACHTIN],,,,,,,,,,Split Luciferase Assay Z-score Set 1 ([1]; CC_NCI screening): 0.99; Split Luciferase Assay % Lum Set 1 ([1]; CC_NCI screening): 112.30%; Split Luciferase Assay Z-score Set 2 ([1]; CC_NCI screening): -3.23; Split Luciferase Assay %Lum Set 2 ([1]; CC_NCI screening): 60.34%; Split Luciferase Assay %Lum Avg [1]: 86.32%; Toxicity Assay % Fluor (CTB cell viability fluorescence) (Clone V cells [2]): 108.95%; Toxicity Assay Z-score (CTB cell viability) (Clone V cells [3]): 1.25; Luciferase Assay % Lum (full-length luciferase counter-screen) [4]: 102.63%; Luciferase Assay Z-score (full-length luciferase counter-screen) [4]: 0.34
CS(=O)(=O)CCNCc1ccc(-c2ccc3ncnc(Nc4ccc(OCc5cccc(F)c5)c(Cl)c4)c3c2)o1 [LAPATINIB],95.71%,-0.35,107.26%,-2.02,85.57%,87.41%,-1.61,,,
N#Cc1ccc(C(c2ccc(C#N)cc2)n2cncn2)cc1 [Letrozole],115.47%,1.26,107.36%,-0.88,93.68%,99.90%,-0.01,99.25%,-0.06,
COc1c2occc2cc2ccc(=O)oc12 [Methoxsalen],,,,,,,,,,"viability at 16 h, 30 µM (in vitro): 109%; Toxicity Assay Z-score (CTB cell viability) (Clone V cells [2]; human, 16 h, 30 µM): 1.23; Luciferase Assay % Lum (full-length luciferase counter-screen) [4]: 93.90%; Luciferase Assay Z-score (full-length luciferase counter-screen) [4]: -0.78"
COC1=CC(c2cc3ccccc3[nH]2)=N/C1=C\c1[nH]c(C)cc1C [OBATOCLAX],61.38%,-3.14,60.20%,-1.76,87.39%,78.33%,-2.78,59.03%,-3.31,
COC(=O)C[C@](O)(CCCC(C)(C)O)C(=O)O[C@@H]1C(OC)=C[C@]23CCCN2CCc2cc4c(cc2[C@H]13)OCO4 [Omacetaxine mepesuccinate],19.77%,-6.53,20.37%,-0.87,93.81%,87.82%,-1.56,20.98%,-6.39,
O=C(/C=C/c1cccc(S(=O)(=O)Nc2ccccc2)c1)NO [PXD101],106.11%,0.50,105.94%,-0.54,96.16%,87.87%,-1.55,105.78%,0.47,
Cc1ccc(C(=O)Nc2ccc(CN3CCN(C)CC3)c(C(F)(F)F)c2)cc1C#Cc1cnc2cccnn12 [Ponatinib],58.26%,-3.40,55.93%,,80.95%,84.93%,-1.93,53.59%,-3.75,Toxicity Assay Z-score (Clone V cells [2]; human): -2.66
Oc1ccc(-c2nc(-c3ccncc3)c(-c3ccc(F)cc3)[nH]2)cc1 [SB 202190],105.07%,0.41,103.25%,-0.55,96.10%,79.13%,-2.67,101.43%,0.12,
O=C1CCC(N2C(=O)c3ccccc3C2=O)C(=O)N1 (centres unmarked) [Thalidomide],108.19%,0.67,118.40%,-1.74,87.53%,100.85%,0.11,128.60%,2.31,
CC[C@@]1(O)C(=O)OCc2c1cc1n(c2=O)Cc2cc3c(CN(C)C)c(O)ccc3nc2-1 [Topotecan hydrochloride],58.26%,-3.40,58.10%,-0.96,93.13%,88.71%,-1.45,57.94%,-3.40,
CC1=C(/C=C/C(C)=C/C=C/C(C)=C/C(=O)O)C(C)(C)CCC1 [Tretinoin],106.11%,0.50,111.92%,-1.78,87.25%,80.43%,-2.51,117.73%,1.43,
Clc1ccc(Nc2nnc(Cc3ccncc3)c3ccccc23)cc1 [VATALANIB],69.70%,-2.47,67.08%,-1.79,87.19%,78.45%,-2.76,64.47%,-2.87,
CC[C@]1(O)C[C@H]2CN(CCc3c([nH]c4ccccc34)[C@@](C(=O)OC)(c3cc4c(cc3OC)N(C=O)[C@H]3[C@@](O)(C(=O)OC)[C@H](OC(C)=O)[C@]5(CC)C=CCN6CC[C@]43[C@@H]65)C2)C1 [Vincristine sulfate],196.62%,7.86,198.49%,-0.20,98.56%,109.71%,1.24,200.35%,8.11,
CCC1=C[C@@H]2CN(C1)Cc1c([nH]c3ccccc13)[C@@](C(=O)OC)(c1cc3c(cc1OC)N(C)[C@H]1[C@@](O)(C(=O)OC)[C@H](OC(C)=O)[C@]4(CC)C=CCN5CC[C@]31[C@@H]54)C2 [Vinorelbine tartrate],185.18%,6.93,208.53%,-1.62,88.42%,110.51%,1.35,231.88%,10.66,
